We go through one compound from paper PMC3010111 (Molecular Systems Biology, 2010).

The target in this test is T1, AroB (dehydroquinate synthase) (Escherichia coli, UniProt P07639).
T1 sequence (P07639 1-362): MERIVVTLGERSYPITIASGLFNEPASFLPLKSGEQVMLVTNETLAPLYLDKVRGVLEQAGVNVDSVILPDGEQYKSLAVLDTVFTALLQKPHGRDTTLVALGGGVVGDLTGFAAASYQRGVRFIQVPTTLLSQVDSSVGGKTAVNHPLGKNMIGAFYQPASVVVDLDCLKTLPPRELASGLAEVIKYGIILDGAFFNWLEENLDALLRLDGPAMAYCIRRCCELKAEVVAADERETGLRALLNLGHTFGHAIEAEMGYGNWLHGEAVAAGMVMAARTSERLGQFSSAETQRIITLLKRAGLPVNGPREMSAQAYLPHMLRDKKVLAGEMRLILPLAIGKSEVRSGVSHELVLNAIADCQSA
Put plainly: NAD+ reduction. The note with it: 2 mM NAD+, 100 mM Tris–HCl pH 7.5, 10°C; 11 μM AroB. In kind it is biochemical.

Take `O=C(O)[C@H](O)[C@H](O)COP(=O)(O)O` [4PE]: the “NAD+ reduction; single turnover (data not shown)” value was “AroB also oxidizes 4PE, but carries out only a single turnover (data not shown)”.
